Experimental data from patent US10053468B2, “Heterocyclic compound” (TAKEDA PHARMACEUTICAL COMPANY LIMITED, priority 2013, dated 2018).
Where two headings read alike, the source gives them in different places.

What was measured:
RORγt [1] = target: T1, RORγt (Homo sapiens, UniProt P51449); assay: RORγt binding test using fluorescent-labeled cholesterol (TR-FRET); conditions: read-out: Binding inhibitory rate of fluorescent-labeled cholesterol to RORγt at test compound 1 μM (%)
T1 sequence (P51449 1-497 isoform P51449-2): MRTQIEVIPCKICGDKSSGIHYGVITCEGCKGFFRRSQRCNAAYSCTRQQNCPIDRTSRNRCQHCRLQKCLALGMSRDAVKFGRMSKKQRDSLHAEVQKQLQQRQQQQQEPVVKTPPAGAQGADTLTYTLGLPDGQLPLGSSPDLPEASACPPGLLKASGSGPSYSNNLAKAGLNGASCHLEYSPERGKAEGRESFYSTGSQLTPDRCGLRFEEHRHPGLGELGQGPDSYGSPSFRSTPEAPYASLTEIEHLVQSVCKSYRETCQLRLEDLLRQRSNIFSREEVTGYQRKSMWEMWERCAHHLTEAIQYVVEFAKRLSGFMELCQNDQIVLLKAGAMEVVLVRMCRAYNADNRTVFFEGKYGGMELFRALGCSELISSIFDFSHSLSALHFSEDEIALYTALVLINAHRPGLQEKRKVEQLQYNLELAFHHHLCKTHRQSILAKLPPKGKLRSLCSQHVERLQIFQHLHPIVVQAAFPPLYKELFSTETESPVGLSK
Procedure, shortened: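 TR-FRET displacement with His-tagged RORγt, BODIPY-cholesterol and Tb-anti-His antibody in Tris-HCl pH 7.5, 100 mM NaCl, 1 mM DTT, 0.1% BSA. Compound, RORγt and labelled cholesterol were incubated 20 min at RT, then antibody was added for another 20 min.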

RORγt [2] = target: T1, RORγt; assay: RORγt binding test using fluorescent-labeled synthetic ligand (TR-FRET); conditions: read-out: Binding inhibitory rate of fluorescent-labeled synthetic ligand to RORγt at test compound 1 μM (%)
Procedure, shortened: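 His-tagged RORγt (diluted to 240 nM) with compound, then fluorescent synthetic ligand (diluted to 12 μM), 20 min at room temperature, followed by Tb anti-His antibody (diluted to 8 nM), 20 min.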

RORγt [3] = target: T1, RORγt; assay: Cofactor recruitment test (Alpha Screen, biotinylated SRC-1 peptide); type: biochemical; conditions: read-out: Signal value inhibitory rate at test compound 1 μM (%)
Description: Cofactor Recruitment Test
Cofactor recruitment test was performed by Alpha Screen (Histidine Detection Kit, PerkinElmer) method. First, a test compound was diluted with an assay buffer (50 mM Tris-HCl (pH 7.5), 50 mM KCl, 1 mM DTT, 0.1% BSA) and added to a 384 well plate by 5 μL. […] The mixture was stood in a dark place for 1 hr, and the signal value was measured by Envision (PerkinElmer).

RORγt [4] = target: T1, RORγt; assay: Jurkat reporter test (human IL-17 ROR response element luciferase, RORγt vector); type: cell-based; conditions: read-out: Luminescence level inhibitory rate at test compound 3 μM (%)
Procedure, shortened: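 Jurkat cells were electroporated (1350 V, 10 ms, 3 pulses) with reporter constructs, then cultured overnight with compound in RPMI containing 10% lipid-reduced FCS, 10 mM HEPES pH 7.5 and 5 μM lovastatin. Luciferase was quantified by Bright-Glo luminescence after 10 min at room temperature.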

[5] = test compound 3 μM, Jurkat cells

| SMILES | inhibition at 1 µM (RORγt [1]) | inhibition at 1 µM (RORγt [2]) | inhibition at 1 µM (RORγt [3]) | inhibition at 3 µM (RORγt [4]; [5]) | inhibition at 3 µM (RORγt [4]; Jurkat) |
| --- | --- | --- | --- | --- | --- |
| COCc1ccc2c(c1)CCN(C(=O)CCCC(=O)O)[C@H]2C(=O)Nc1cc(F)c([Si](C)(C)C)c(F)c1 [Example 130, 5-((1R)-1-((3,5-difluoro-4-(trimethylsilyl)phenyl)carbamoyl)-6-(methoxymethyl)-3,4-dihydroisoquinolin-2(1H)-yl)-5-oxopentanoic acid] | 102% | 102% | 100% | – | 104% |
| COc1ccc2c(c1)CCN(C(=O)c1cc(O)no1)[C@H]2C(=O)Nc1ccc([Si](C)(C)C)c(F)c1 [Example 7, (1R)-N-(3-fluoro-4-(trimethylsilyl)phenyl)-2-((3-hydroxy-1,2-oxazol-5-yl)carbonyl)-6-methoxy-1,2,3,4-tetrahydroisoquinoline-1-carboxamide] | 102% | 101% | 92.8% | – | 101% |
| CCOCC(C)(C)c1c(F)cc(NC(=O)[C@H]2c3ccc(OCC)cc3CCN2C(=O)CCCC(=O)O)cc1F [Example 166, 5-((1R)-6-ethoxy-1-((4-(1-ethoxy-2-methylpropan-2-yl)-3,5-difluorophenyl)carbamoyl)-3,4-dihydroisoquinolin-2(1H)-yl)-5-oxopentanoic acid] | 100% | 102% | 86% | 99% | – |
| COCC(C)(C)c1c(F)cc(NC(=O)[C@H]2c3ccc(OC)cc3CCN2C(=O)c2cc(O)no2)cc1F [Example 97, (1R)-N-(3,5-difluoro-4-(1-methoxy-2-methylpropan-2-yl)phenyl)-2-((3-hydroxy-1,2-oxazol-5-yl)carbonyl)-6-methoxy-1,2,3,4-tetrahydroisoquinoline-1-carboxamide] | 102% | 101% | 96% | 102% | – |
| COc1ccc2c(c1)CCN(C(=O)Cc1cc(O)no1)[C@H]2C(=O)Nc1ccc([Si](C)(C)C)c(C#N)c1 [Example 72, (1R)-N-(3-cyano-4-(trimethylsilyl)phenyl)-2-((3-hydroxy-1,2-oxazol-5-yl)acetyl)-6-methoxy-1,2,3,4-tetrahydroisoquinoline-1-carboxamide] | 104% | 102% | 94% | – | 100% |
| COCc1ccc2c(n1)CCN(C(=O)Cc1cc(O)no1)[C@H]2C(=O)Nc1cc(F)c([Si](C)(C)C)c(F)c1 [Example 138, (5R)-N-(3,5-difluoro-4-(trimethylsilyl)phenyl)-6-((3-hydroxy-1,2-oxazol-5-yl)acetyl)-2-(methoxymethyl)-5,6,7,8-tetrahydro-1,6-naphthyridine-5-carboxamide] | 102% | 101% | 100% | – | 104% |
| CCOCC(C)(C)c1c(F)cc(NC(=O)[C@H]2c3ccc(OC)cc3CCN2C(=O)c2cc(O)no2)cc1F [Example 171, (1R)-N-(4-(1-ethoxy-2-methylpropan-2-yl)-3,5-difluorophenyl)-2-((3-hydroxy-1,2-oxazol-5-yl)carbonyl)-6-methoxy-1,2,3,4-tetrahydroisoquinoline-1-carboxamide] | 100% | 101% | 82% | 96% | – |
| CCOc1ccc2c(c1)CCN(C(=O)Cc1cc(O)no1)[C@H]2C(=O)Nc1ccc(C(C)(C)C)c(F)c1 [Example 67, (1R)-N-(4-tert-butyl-3-fluorophenyl)-6-ethoxy-2-((3-hydroxy-1,2-oxazol-5-yl)acetyl)-1,2,3,4-tetrahydroisoquinoline-1-carboxamide] | 103% | 102% | 87% | 100% | – |
| COc1ccc2c(c1)CCN(C(=O)CC#N)[C@H]2C(=O)Nc1cc(F)c(C(C)(C)C(=O)N2CCCC2)c(F)c1 [Example 103, (1R)-2-(cyanoacetyl)-N-(3,5-difluoro-4-(2-methyl-1-oxo-1-(pyrrolidin-1-yl)propan-2-yl)phenyl)-6-methoxy-1,2,3,4-tetrahydroisoquinoline-1-carboxamide] | 104% | 101% | 101% | 102% | – |
| COCc1ccc2c(c1)CCN(C(=O)c1cc(O)no1)[C@H]2C(=O)Nc1cc(F)c2c(c1)CCC2(C)C [Example 133, (1R)-N-(7-fluoro-1,1-dimethyl-2,3-dihydro-1H-inden-5-yl)-2-((3-hydroxy-1,2-oxazol-5-yl)carbonyl)-6-(methoxymethyl)-1,2,3,4-tetrahydroisoquinoline-1-carboxamide] | 103% | 101% | 96% | 103% | – |

More lines, main results first:

| inhibition at 1 µM (RORγt [1]) | inhibition at 1 µM (RORγt [2]) | inhibition at 1 µM (RORγt [3]) | inhibition at 3 µM (RORγt [4]; [5]) | SMILES | inhibition at 3 µM (RORγt [4]; Jurkat) |
| --- | --- | --- | --- | --- | --- |
| 102% | 101% | 85.8% | 102% | COc1ccc2c(c1)CCN(C(=O)[C@@H]1CNC(=O)C1)[C@H]2C(=O)Nc1ccc(C(C)(C)C)c(F)c1 [Example 25, (1R)-N-(4-tert-butyl-3-fluorophenyl)-6-methoxy-2-(((3S)-5-oxopyrrolidin-3-yl)carbonyl)-1,2,3,4-tetrahydroisoquinoline-1-carboxamide] | – |
| 101% | 102% | 78% | 96% | COc1ccc2c(c1)CCN(C(=O)c1cc(O)no1)[C@H]2C(=O)Nc1ccc(C(C)(C)COCC(F)F)c(F)c1 [Example 75, (1R)-N-(4-(1-(2,2-difluoroethoxy)-2-methylpropan-2-yl)-3-fluorophenyl)-2-((3-hydroxy-1,2-oxazol-5-yl)carbonyl)-6-methoxy-1,2,3,4-tetrahydroisoquinoline-1-carboxamide] | – |
| 100% | 102% | 70% | 99.9% | COc1ccc2c(c1)CCN(C(=O)CCc1cc(O)no1)[C@H]2C(=O)Nc1cc(F)c2c(c1)CCC2(C)C [Example 63, (1R)-N-(7-fluoro-1,1-dimethyl-2,3-dihydro-1H-inden-5-yl)-2-(3-(3-hydroxy-1,2-oxazol-5-yl)propanoyl)-6-methoxy-1,2,3,4-tetrahydroisoquinoline-1-carboxamide] | – |
| 102% | 102% | 98% | 103% | COCc1ccc2c(c1)CCN(C(=O)c1cc(O)no1)[C@H]2C(=O)Nc1cc(F)c(C(C)(C)COC)c(F)c1 [Example 137, (1R)-N-(3,5-difluoro-4-(1-methoxy-2-methylpropan-2-yl)phenyl)-2-((3-hydroxy-1,2-oxazol-5-yl)carbonyl)-6-(methoxymethyl)-1,2,3,4-tetrahydroisoquinoline-1-carboxamide] | – |
| 99% | 102% | 96% | 102% | COCC(C)(C)c1c(F)cc(NC(=O)[C@H]2c3ccc(OC)cc3CCN2C(=O)Cc2cc(O)no2)cc1F [Example 98, (1R)-N-(3,5-difluoro-4-(1-methoxy-2-methylpropan-2-yl)phenyl)-2-((3-hydroxy-1,2-oxazol-5-yl)acetyl)-6-methoxy-1,2,3,4-tetrahydroisoquinoline-1-carboxamide] | – |
| 103% | 101% | 89% | 102% | COc1ccc2c(n1)CCN(C(=O)c1cc(O)no1)[C@H]2C(=O)Nc1cc(F)c2c(c1)CCC2(C)C [Example 115, (5R)-N-(7-fluoro-1,1-dimethyl-2,3-dihydro-1H-inden-5-yl)-6-((3-hydroxy-1,2-oxazol-5-yl)carbonyl)-2-methoxy-5,6,7,8-tetrahydro-1,6-naphthyridine-5-carboxamide] | – |
| 100% | 102% | 80.4% | 101% | COc1ccc2c(c1)CCN(C(=O)c1cc(O)no1)[C@H]2C(=O)Nc1ccc(C(C)(C)C)c(F)c1 [Example 13, (1R)-N-(4-tert-butyl-3-fluorophenyl)-2-((3-hydroxy-1,2-oxazol-5-yl)carbonyl)-6-methoxy-1,2,3,4-tetrahydroisoquinoline-1-carboxamide] | – |
